According to patent US12473295B2, “Substituted straight chain spiro derivatives” (Janssen Pharmaceutica NV, priority 2019, dated 2025):
Counter-ions that a name gives are not always drawn. Like-named read-outs stand apart in the source and are kept apart here.

Tests used:
OCI-AML3 cells = assay: Proliferation assay (spheroid growth, 8 days), OCI-AML3; format: cell-based, human; conditions: OCI-AML3, 8 days
Method: The anti-proliferative effect of menin/MLL protein/protein interaction inhibitor test compounds was assessed in human leukemia cell lines. The cell line MOLM14 harbors a MLL translocation and expresses the MLL fusion protein MLL-AF9, respectively, as well as the wildtype protein from the second allele. OCI-AML3 cells that carry the NPM1c gene mutation were also tested. […] KO-52 was used as a control cell line containing two MLL (KMT2A) wildtype alleles in order to exclude compounds that display general cytotoxic effects.
KO-52 and OCI-AML3 cell lines were propagated in alpha-MEM (Sigma Aldrich) supplemented with 20% heat-inactivated fetal bovine serum (HyClone), 2 mM L-glutamine (Sigma Aldrich) and 50 μg/ml gentamycin (Gibco).
In order to assess the anti-proliferative effects, 200 MOLM14 cells, 200 OCI-AML3 cells or 300 KO-52 cells were seeded in 200 μl media per well in […] round bottom, ultra-low attachment plates (Costar, catalogue number 7007). Cell seeding numbers were chosen based on growth curves to ensure linear growth throughout the experiment. Test compounds were added at different concentrations and the DMSO content was normalized to 0.3%. Cells were incubated for 8 days at 37° C. and 5% CO2. Spheroid like growth was measured in real-time by live-cell imaging (IncuCyteZOOM, Essenbio, 4× objective) acquiring images at day 8. Confluence (%) as a measure of spheroid size was determined using an integrated analysis tool.
In order to determine the effect of the test compounds over time, the confluence in each well as a measure of spheroid size, was calculated. Confluence of the highest dose of a reference compound was used as baseline for the LC (Low control) and the confluence of DMSO treated cells was used as 0% cytotoxicity (High Control, HC).
GraphPad Prism(version 7.00) was used to calculate the IC50. Dose-response equation was used for the plot of % Effect vs Log 10 compound concentration with a variable slope and fixing the maximum to 100% and the minimum to 0%.

MOLM14 cells = assay: Proliferation assay (spheroid growth, 8 days), MOLM14; format: cell-based, human; conditions: MOLM14, 8 days, read-out: spheroid assay_OneTime MOLM14 IC50;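 note: spheroid size read as confluence by live-cell imaging, compounds added at a range of concentrations with 0.3% DMSO, DMSO-treated wells = 0%, highest reference dose = low control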
[1] = biological target: menin/MLL (terbium chelate-labeled menin, FITC-MBM1 peptide) (Homo sapiens (Human), UniProt O00255); assay: Menin/MLL homogenous time-resolved fluorescence (HTRF) assay; format: binding;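 note: IC50 from percent inhibition of HTRF signal, normalized between wells without competitor and wells with a saturating competitor that displaces FITC-MBM1 from His-tagged menin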
MEIS1 mRNA = MEIS1 mRNA expression assay (Quantigene Singleplex) in MOLM14 cells; format: cell-based, human; conditions: 48 hours incubation;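 note: MEIS1 transcript levels read by probe hybridization and normalized to RPL28 mRNA, with IC50 fitted to fold changes across a rising compound concentration series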
[2] = HTRF-30 min incubation IC50, 30 min incubation
[3] = read-out: HTRF-30 min incubation IC50, 30 min incubation

menin/MLL (terbium chelate-labeled menin, FITC-MBM1 peptide), sequence (O00255 other isoform, or with tags, fused parts or gaps): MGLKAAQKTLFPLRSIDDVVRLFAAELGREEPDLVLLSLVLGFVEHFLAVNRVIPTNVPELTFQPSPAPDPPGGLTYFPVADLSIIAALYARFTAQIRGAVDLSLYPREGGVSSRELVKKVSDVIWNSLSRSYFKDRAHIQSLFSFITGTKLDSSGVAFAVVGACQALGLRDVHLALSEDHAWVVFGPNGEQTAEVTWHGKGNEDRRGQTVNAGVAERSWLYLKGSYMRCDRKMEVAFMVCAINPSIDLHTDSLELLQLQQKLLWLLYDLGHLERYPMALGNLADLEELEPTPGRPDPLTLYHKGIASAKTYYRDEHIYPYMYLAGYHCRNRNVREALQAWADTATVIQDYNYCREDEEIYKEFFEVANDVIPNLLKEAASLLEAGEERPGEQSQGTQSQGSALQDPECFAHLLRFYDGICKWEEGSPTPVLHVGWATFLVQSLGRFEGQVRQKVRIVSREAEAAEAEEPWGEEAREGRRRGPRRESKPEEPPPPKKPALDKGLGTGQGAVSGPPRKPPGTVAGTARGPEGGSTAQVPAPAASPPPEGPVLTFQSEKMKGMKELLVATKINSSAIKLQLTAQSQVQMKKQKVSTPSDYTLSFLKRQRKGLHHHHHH

Row | IC50 (OCI-AML3 cells; Homo sapiens, OCI-AML-3, […]) | IC50 (MOLM14 cells; Homo sapiens, MOLM-14, […]) | IC50 [1, 2] | IC50 (OCI-AML3 cells) | IC50 (MOLM14 cells) | IC50 [1, 3] | IC50 (MEIS1 mRNA) | IC50 (MEIS1 mRNA; Homo sapiens, MOLM-14, 48 h) | SMILES
1 | 61 nM | 28 nM | 0.29 nM | – | – | – | – | – | CCN(C(=O)c1cc(F)ccc1Oc1nncnc1N1CCC2(C1)CN(C(C(C)C)C(C)CCN(C)CCOC)C2)C(C)C (single isomer, unassigned) [Compound 265, N-ethyl-5-fluoro-N-isopropyl-2-((5-(2-(6-((2-methoxyethyl)(methyl)amino)-2,4-dimethylhexan-3-yl)-2,6-diazaspiro[3.4]octan-6-yl)-1,2,4-triazin-6-yl)oxy)benzamide (mixture of R,S and S,R; or mixture of RR and S,S) fumarate]
2 | – | – | – | 2390 nM | 340 nM | 2.56 nM | – | – | CC(C)[C@H](CCCN(C)C)N1CC2(CCN(c3ccnnc3Oc3ccc(F)cc3C(=O)N(C(C)C)C(C)C)C2)C1 (single isomer, unassigned) [Compound 76, (*S)-2-((4-(2-(6-(dimethylamino)-2-methylhexan-3-yl)-2,6-diazaspiro[3.4]octan-6-yl)pyridazin-3-yl)oxy)-5-fluoro-N,N-diisopropylbenzamide]
3 | – | – | – | 9240 nM | 1490 nM | 88.8 nM | > 1000 nM | – | CCN(C(=O)c1cc(F)ccc1Oc1nncnc1N1CCC2(C1)CN([C@@H](CCO)C(C)C)C2)C(C)C (single isomer, unassigned) [Compound 215, (*S)—N-ethyl-5-fluoro-2-((5-(2-(1-hydroxy-4-methylpentan-3-yl)-2,6-diazaspiro[3.4]octan-6-yl)-1,2,4-triazin-6-yl)oxy)-N-isopropylbenzamide]
4 | 770 nM | 97 nM | 0.26 nM | – | – | – | – | 160 nM | CCN(C(=O)c1cc(F)ccc1Oc1nncnc1N1CC2(CCN(C(CCCN(C)CCOC)C(C)C)C2)C1)C(C)C (stereo not drawn) [Compound 302, N-ethyl-5-fluoro-N-isopropyl-2-((5-(6-(6-((2-methoxyethyl)(methyl)amino)-2-methylhexan-3-yl)-2,6-diazaspiro[3.4]octan-2-yl)-1,2,4-triazin-6-yl)oxy)benzamide fumarate]
5 | – | 420 nM | 1.82 nM | – | – | – | – | ~360 nM | CC(C)[C@H](C[C@H](O)CN(C)C)N1CC2(CCN(c3ncnnc3Oc3ccc(F)cc3C(=O)N(C(C)C)C(C)C)C2)C1 (single isomer, unassigned) [Compound 369, 2-((5-(2-((3*S,5*S)-6-(dimethylamino)-5-hydroxy-2-methylhexan-3-yl)-2,6-diazaspiro[3.4]octan-6-yl)-1,2,4-triazin-6-yl)oxy)-5-fluoro-N,N-diisopropylbenzamide fumarate]
6 | 7090 nM | > 940 nM | 8.31 nM | – | – | – | – | > 1000 nM | CCN(C(=O)c1cc(F)ccc1Oc1nncnc1N1CCC2(C1)CN([C@@H](CCN(C)C)C(C)C)C2)C(C)C (single isomer, unassigned) [Compound 225, (*S)-2-((5-(2-(1-(dimethylamino)-4-methylpentan-3-yl)-2,6-diazaspiro[3.4]octan-6-yl)-1,2,4-triazin-6-yl)oxy)-N-ethyl-5-fluoro-N-isopropylbenzamide fumarate]
7 | 40 nM | 7 nM | – | – | – | – | – | – | COCCN(C)CCC[C@H](C(C)C)N1CC2(CCN(c3ncnnc3Oc3ccc(F)cc3C(=O)N([13CH2][13CH3])[13CH]([13CH3])[13CH3])C2)C1.O=C(O)C(=O)O [Compound 402]
8 | 4980 nM | > 940 nM | 12 nM | – | – | – | – | > 1000 nM | CCN(C)C[C@H](O)C[C@@H](C(C)C)N1CC2(CCN(c3ncnnc3Oc3ccc(F)cc3C(=O)N(CC)C(C)C)C2)C1 (relative stereo) [Compound 347, N-ethyl-2-((5-(2-((3*S,5R)-6-(ethyl(methyl)amino)-5-hydroxy-2-methylhexan-3-yl)-2,6-diazaspiro[3.4]octan-6-yl)-1,2,4-triazin-6-yl)oxy)-5-fluoro-N-isopropylbenzamide formate]
9 | 280 nM | 56 nM | 0.2 nM | – | – | – | – | 140 nM | CCN(C(=O)c1cc(F)ccc1Oc1nnc(NC)nc1N1CCC2(C1)CN([C@H](CCCN(C)CCOC)C(C)C)C2)C(C)C [Compound 395, (R)-N-ethyl-5-fluoro-N-isopropyl-2-((5-(2-(6-((2-methoxyethyl)(methyl)amino)-2-methylhexan-3-yl)-2,6-diazaspiro[3.4]octan-6-yl)-3-(methylamino)-1,2,4-triazin-6-yl)oxy)benzamide formate]
10 | 680 nM | 210 nM | 0.33 nM | – | – | – | – | 110 nM | CCN(C(=O)c1cc(F)ccc1Oc1nnc(Cl)nc1N1CCC2(C1)CN([C@H](CCCN(C)C)C(C)C)C2)C(C)C [Compound 411, (R)-2-((3-chloro-5-(2-(6-(dimethylamino)-2-methylhexan-3-yl)-2,6-diazaspiro[3.4]octan-6-yl)-1,2,4-triazin-6-yl)oxy)-N-ethyl-5-fluoro-N-isopropylbenzamide formate]
11 | 4630 nM | > 940 nM | 5.57 nM | – | – | – | – | > 1000 nM | CCN(C(=O)c1cc(F)ccc1Oc1nncnc1N1CCC2(C1)CN([C@@H](CCCCN)C(C)C)C2)C(C)C (single isomer, unassigned) [Compound 210, (*S)-2-((5-(2-(7-amino-2-methylheptan-3-yl)-2,6-diazaspiro[3.4]octan-6-yl)-1,2,4-triazin-6-yl)oxy)-N-ethyl-5-fluoro-N-isopropylbenzamide]
12 | 1120 nM | 180 nM | 1.36 nM | – | – | – | – | 280 nM | CCN(C(=O)c1cc(F)ccc1Oc1nncnc1N1CCC2(C1)CN([C@@H](C[C@@H](C)CN(C)CCOC)C(C)C)C2)C(C)C (single isomer, unassigned) [Compound 241, N-ethyl-5-fluoro-N-isopropyl-2-((5-(2-((3*S,5*R)-6-((2-methoxyethyl)(methyl)amino)-2,5-dimethylhexan-3-yl)-2,6-diazaspiro[3.4]octan-6-yl)-1,2,4-triazin-6-yl)oxy)benzamide fumarate]
13 | 1800 nM | 790 nM | 1.77 nM | – | – | – | – | ~560 nM | CCN(C(=O)c1cc(F)ccc1Oc1nncnc1N1CCC2(C1)CN([C@H](CCN(C)CC(N)=O)C(C)C)C2)C(C)C (single isomer, unassigned) [Compound 231, (*R)-2-((5-(2-(1-amino-2-oxoethyl)(methyl)amino)-4-methylpentan-3-yl)-2,6-diazaspiro[3.4]octan-6-yl)-1,2,4-triazin-6-yl)oxy)-N-ethyl-5-fluoro-N-isopropylbenzamide]
14 | 490 nM | 220 nM | 0.033 nM | – | – | – | – | 130 nM | CCN(C(=O)c1cc(F)ccc1Oc1nnc(Cl)nc1N1CCC2(C1)CN([C@H](CCCN)C(C)C)C2)C(C)C [Compound 406, (R)-2-((5-(2-(6-amino-2-methylhexan-3-yl)-2,6-diazaspiro[3.4]octan-6-yl)-3-chloro-1,2,4-triazin-6-yl)oxy)-N-ethyl-5-fluoro-N-isopropylbenzamide formate]
15 | – | – | ~3.93 nM | – | – | – | – | 530 nM | CCN(C)C[C@@H](O)C[C@@H](C(C)C)N1CC2(CCN(c3ncnnc3Oc3ccc(F)cc3C(=O)N(CC)C(C)C)C2)C1 (single isomer, unassigned) [Compound 343, N-ethyl-2-((5-(2-((3*S,5S)-6-(ethyl(methyl)amino)-5-hydroxy-2-methylhexan-3-yl)-2,6-diazaspiro[3.4]octan-6-yl)-1,2,4-triazin-6-yl)oxy)-5-fluoro-N-isopropylbenzamide fumarate]
16 | 380 nM | 160 nM | 0.12 nM | – | – | – | – | 120 nM | CCN(C(=O)c1cc(F)ccc1Oc1nnc(OC)nc1N1CCC2(C1)CN([C@H](CCCN(C)C)C(C)C)C2)C(C)C [Compound 410, (R)-2-((5-(2-(6-(dimethylamino)-2-methylhexan-3-yl)-2,6-diazaspiro[3.4]octan-6-yl)-3-methoxy-1,2,4-triazin-6-yl)oxy)-N-ethyl-5-fluoro-N-isopropylbenzamide formate]
17 | – | 300 nM | 1.53 nM | – | – | – | – | 160 nM | CCN(C(=O)c1cc(F)ccc1Oc1nncnc1N1CCC2(C1)CN([C@H](C[C@H](CN(C)C)OC)C(C)C)C2)C(C)C (single isomer, unassigned) [Compound 314, 2-((5-(2-((3*R,5*R)-6-(dimethylamino)-5-methoxy-2-methylhexan-3-yl)-2,6-diazaspiro[3.4]octan-6-yl)-1,2,4-triazin-6-yl)oxy)-N-ethyl-5-fluoro-N-isopropylbenzamide fumarate]
